Where a SMILES comes first, the peptide text is derived from it. Bridges are numbered along the chain shown (N, C = ends). [ ]: non-standard residue; d: D form. The star is where a group is joined. hPhe(3-Cl-4-CF3) = N[C@@H](CCc1ccc(C(F)(F)F)c(Cl)c1)C(=O)O; NPrPhe(4-CF3) = CCCN[C@@H](Cc1ccc(C(F)(F)F)cc1)C(=O)O; NMeGly(cPent) = CN[C@H](C(=O)O)C1CCCC1; NMeD = CN[C@@H](CC(=O)O)C(=O)O; NMeL = CN[C@@H](CC(C)C)C(=O)O; hPip = O=C(O)[C@@H]1CCCCCN1; Morpholide = C1CN(*)CCO1; Ac5c = NC1(C(=O)O)CCCC1; Ac4c = NC1(C(=O)O)CCC1; NEtG = CCNCC(=O)O; Sar = CNCC(=O)O
Tests used:
[1] = target: GDP-bound NRAS wild-type protein (Homo sapiens, UniProt P01111); assay: Binding to NRAS by surface plasmon resonance (SPR), Single Cycle Kinetics; conditions: SPR; for NRAS/KRAS (ratio of KD value with respect to NRAS to KD value with respect to KRAS): GDP-bound NRAS wild-type vs GDP-bound KRAS wild-type
[2] = target: GDP-bound HRAS wild-type protein (Homo sapiens, UniProt P01112); assay: Binding to HRAS by surface plasmon resonance (SPR), Single Cycle Kinetics; conditions: SPR; for HRAS/KRAS (ratio of KD value with respect to HRAS to KD value with respect to KRAS): GDP-bound HRAS wild-type vs GDP-bound KRAS wild-type
Sequence of GDP-bound HRAS wild-type protein (P01112 whole entry): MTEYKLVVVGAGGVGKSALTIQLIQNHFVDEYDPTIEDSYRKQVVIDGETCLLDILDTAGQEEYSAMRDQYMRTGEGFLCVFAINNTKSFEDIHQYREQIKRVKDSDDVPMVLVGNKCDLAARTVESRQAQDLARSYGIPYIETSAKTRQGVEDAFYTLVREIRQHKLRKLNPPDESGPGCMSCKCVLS

Sequence of GDP-bound NRAS wild-type protein (P01111 whole entry): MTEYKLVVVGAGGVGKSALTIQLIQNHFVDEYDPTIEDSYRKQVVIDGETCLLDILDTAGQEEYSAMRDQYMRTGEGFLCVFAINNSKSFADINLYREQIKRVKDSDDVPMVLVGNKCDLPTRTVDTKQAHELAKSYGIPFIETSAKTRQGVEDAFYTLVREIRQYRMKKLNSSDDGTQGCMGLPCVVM

CCO[C@@H]1C[C@H]2C(=O)NC3(CC(C)(C)C3)C(=O)N(C)[C@@H](C3CCCC3)C(=O)N(C)[C@H](C(=O)N(C)C)CC(=O)N(C)[C@@H](CC)C(=O)N[C@@H]([C@@H](C)CC)C(=O)N(C)CC(=O)N(C)[C@H]3C/C=C\CCN(C3=O)[C@@H](Cc3ccc(C(F)F)cc3)C(=O)N(C)CC(=O)N[C@@H](CCc3cc(F)c(C(F)(F)F)c(F)c3)C(=O)N2C1 [PP2049]
NRAS/KRAS (ratio of KD value with respect to NRAS to KD value with respect to KRAS) [1]: A (a compound having 10 or more and less than 20 is denoted as A)
HRAS/KRAS (ratio of KD value with respect to HRAS to KD value with respect to KRAS) [2]: B (a compound having 3 or more and less than 10 is denoted as B)

CC[C@H](C)[C@@H]1NC(=O)[C@H](CC(C)C)N(C)C(=O)C[C@@H](C(=O)N2CCOCC2)N(C)C(=O)[C@H](C2CCCC2)N(C)C(=O)C2(CCCC2)NC(=O)[C@@H]2CCCN2C(=O)[C@H](CCc2cc(F)c(C(F)(F)F)c(F)c2)NC(=O)CN(C)C(=O)[C@H](Cc2ccc(F)cc2)N2CCCCC[C@@H](C2=O)N(C)C(=O)CN(C)C1=O [PP0964]
NRAS/KRAS (ratio of KD value with respect to NRAS to KD value with respect to KRAS) ([1]; KD ratio): B (a compound having 3 or more and less than 10 is denoted as B)
HRAS/KRAS (ratio of KD value with respect to HRAS to KD value with respect to KRAS) ([2]; KD ratio): B (a compound having 3 or more and less than 10 is denoted as B)

CCO[C@@H]1C[C@H]2C(=O)NC3(CCC3)C(=O)N(C)[C@@H](C3CCCC3)C(=O)N(C)[C@H](C(=O)N(C)C)CC(=O)N(C)[C@@H](C(C)C)C(=O)N[C@@H]([C@@H](C)CC)C(=O)N(C)CC(=O)N(C)[C@H]3C/C=C\CCN(C3=O)[C@@H](Cc3ccc(C(F)(F)F)cc3)C(=O)N(C)CC(=O)N[C@@H](CCc3cc(F)c(C(F)(F)F)c(F)c3)C(=O)N2C1 [PP1109]
NRAS/KRAS (ratio of KD value with respect to NRAS to KD value with respect to KRAS) ([1]; KD ratio): A (a compound having 10 or more and less than 20 is denoted as A)
HRAS/KRAS (ratio of KD value with respect to HRAS to KD value with respect to KRAS) ([2]; KD ratio): B (a compound having 3 or more and less than 10 is denoted as B)

CCO[C@@H]1C[C@H]2C(=O)NC3(CCC3)C(=O)N(C)[C@@H](C3CCCC3)C(=O)N(C)[C@H](C(=O)N(C)CCOC)CC(=O)N(C)[C@@H](CC(C)C)C(=O)N[C@@H]([C@@H](C)CC)C(=O)N(C)CC(=O)N(C)[C@H]3C/C=C\CCN(C3=O)[C@@H](Cc3ccc(C(F)(F)F)cc3)C(=O)N(C)CC(=O)N[C@@H](CCc3cc(F)c(C(F)(F)F)c(F)c3)C(=O)N2C1 [PP1317]
NRAS/KRAS (ratio of KD value for GDP-bound NRAS wild-type protein to KD value for KRAS) ([1]; KD ratio class): A (a compound having 10 or more and less than 20 is denoted as A)
HRAS/KRAS (ratio of KD value for GDP-bound HRAS wild-type protein to KD value for KRAS) ([2]; KD ratio class): B (a compound having 3 or more and less than 10 is denoted as B)

CCCN1C(=O)CN(C)C(=O)CN(CC)C(=O)[C@H]([C@@H](C)CC)NC(=O)[C@@H]2CCCCCN2C(=O)C[C@@H](C(=O)N2CCOCC2)N(C)C(=O)[C@H](C2CCCC2)N(C)C(=O)C2(CCCC2)NC(=O)[C@@H]2CCCN2C(=O)[C@H](CCc2ccc(C(F)(F)F)c(Cl)c2)NC(=O)CN(C)C(=O)[C@@H]1Cc1ccc(C(F)(F)F)cc1 [PP0289] ([hPip]I[NEtG][Sar][NPrPhe(4-CF3)][Sar][hPhe(3-Cl-4-CF3)]P[Ac5c][NMeGly(cPent)][NMeD]-Morpholide; lactam N-11)
NRAS/KRAS (ratio of KD for GDP-bound NRAS wild-type to KD for KRAS) [1]: B (a compound having 3 or more and less than 10 is denoted as B)
HRAS/KRAS (ratio of KD for GDP-bound HRAS wild-type to KD for KRAS) [2]: B (a compound having 3 or more and less than 10 is denoted as B)

CC[C@H](C)[C@@H]1NC(=O)[C@H](CC(C)C)N(C)C(=O)C[C@@H](C(=O)N2CCOCC2)N(C)C(=O)[C@H](C2CCCC2)N(C)C(=O)C2(CCC2)NC(=O)[C@@H]2[C@@H](OCC3CC3)CCN2C(=O)[C@H](CCc2cc(F)c(C(F)(F)F)c(F)c2)NC(=O)CN(C)C(=O)[C@H](Cc2ccc(C(F)(F)F)cc2)N2CCCC[C@@H](C2=O)N(C)C(=O)CN(C)C1=O [PP1072]
NRAS/KRAS (ratio of KD value with respect to NRAS to KD value with respect to KRAS) ([1]; KD ratio): B (a compound having 3 or more and less than 10 is denoted as B)
HRAS/KRAS (ratio of KD value with respect to HRAS to KD value with respect to KRAS) ([2]; KD ratio): B (a compound having 3 or more and less than 10 is denoted as B)

CCCN1C(=O)CN(C)C(=O)CN(C)C(=O)[C@H]([C@@H](C)CC)NC(=O)[C@H](CC(C)C)N(C)C(=O)C[C@@H](C(=O)N2CCOCC2)N(C)C(=O)[C@H](C2CCCC2)N(C)C(=O)C2(CCC2)NC(=O)[C@@H]2CCCN2C(=O)[C@H](CCc2ccc(C(F)(F)F)c(Cl)c2)NC(=O)CN(C)C(=O)[C@@H]1Cc1ccc(C(F)(F)F)cc1 [PP0197] ([NMeL]I[Sar][Sar][NPrPhe(4-CF3)][Sar][hPhe(3-Cl-4-CF3)]P[Ac4c][NMeGly(cPent)][NMeD]-Morpholide; lactam N-11)
NRAS/KRAS (ratio of KD for GDP-bound NRAS wild-type to KD for KRAS) [1]: B (a compound having 3 or more and less than 10 is denoted as B)
HRAS/KRAS (ratio of KD for GDP-bound HRAS wild-type to KD for KRAS) [2]: C (A compound having a KD ratio of 0.1 or more and less than 3 is denoted as C)

— patent publication US20250230193A1, “CYCLIC COMPOUND HAVING SELECTIVE KRAS INHIBITORY EFFECT ON HRAS AND NRAS” (CHUGAI SEIYAKU KABUSHIKI KAISHA, priority 2022, published 2025)
